Results reported in article PMC8322070, “A novel orally active HDAC6 inhibitor T-518 shows a therapeutic potential for Alzheimer’s disease and tauopathy in mice” (Scientific Reports, 2021).

Test system: P301S tau Tg mice
Assay: Tau accumulation in hippocampus by RAB-RIPA-FA extraction and Western blotting
Assay type: in vivo, mouse
Conditions: 3 mg/kg daily, from 6 to 9 months of age
Method: T-518, ACY-738, Ricolinostat, and Tubastatin A were synthesized in Takeda. For in vitro cellular experiments, the compounds were solubilized with DMSO and diluted in the culture medium at the indicated concentrations. For in vivo experiments, the compound was reconstituted in 0.5% methylcellulose and administered orally at the indicated doses. After administration, mouse hippocampus was isolated and homogenized in RIPA extraction buffer (50 mM Tris–HCl, 150 mM NaCl, 1% NP-40, 0.5% sodium deoxycholate, and 0.1% SDS, pH 8.0) supplemented with protease and phosphatase inhibitor cocktail (Thermo Fischer, Waltham, MA, USA). The homogenate was centrifuged at 10,000g for 15 min and the supernatant was taken as the RIPA-soluble fraction.
Cell lysate or in vivo protein samples were separated by 10% SDS-PAGE, then electrophoretically transferred to 0.45 μm poly-vinylidene difluoride membranes (Millipore). Membranes were blocked for 1 h in Blocking Reagent (TOYOBO, Osaka, Japan), probed with primary antibodies followed by labeling with HRP-coupled secondary antibodies (Amersham, Piscataway, NJ), and then visualized using chemiluminescence reagent (ECL; Amersham). Images were captured using ImageQuant LAS 4000 (GE healthcare Bio-Sciences, Marlborough, MA, USA). Quantitative densitometric analyses were conducted using ImageQuant TL (GE healthcare Bio-Sciences). […]

O=C1c2cc(-c3nnc(C(F)F)o3)cnc2CN1[C@@H]1CCCC[C@H]1NC(=O)C(F)(F)C(F)(F)F [T-518, N-[(1R,2R)-2-{3-[5-(difluoromethyl)-1,3,4-oxadiazol-2-yl]-5-oxo-5H,6H,7H-pyrrolo[3,4-b]pyridin-6-yl}cyclohexyl]-2,2,3,3,3-pentafluoropropanamide]
RAB-soluble and RIPA-soluble tau fractions in hippocampus: without affecting | accumulation of tau in the FA fraction (RIPA-insoluble tau) in hippocampus: significantly decreased
